Measurements as given in publication PMC11465873, “Functional Properties and Components of Koenigia alpina Extract” (Skin Research and Technology, 2024).
Values after ≈ are worked out from the molar mass of the structure shown.

What was measured:
[1] = target: T1, elastase; experiment: absorbance at […] nm, nitroanilide release; format: biochemical; conditions: N-(methoxysuccinyl)-Ala-Ala-Pro-Val-4-nitroanilide substrate; 0.2 M Tris-HCl; 30 min; positive control
T1 construct: gene CELA1

[2] = target: T2, collagenase; experiment: modified ninhydrin assay, absorbance at […] nm; format: biochemical; conditions: collagen substrate; 5 h at 37°C; calcium chloride; positive control
T2 construct: gene colG

## O=C(O[C@@H]1Cc2c(O)cc(O)cc2O[C@@H]1c1cc(O)c(O)c(O)c1)c1cc(O)c(O)c(O)c1 [Epigallocatechin gallate]
[1]
  IC50: 2620 µg/mL (≈ 5720 µM)
[2]
  IC50: 40 µg/mL (≈ 87.3 µM)
